Results reported in US12343326B2, “Psychoactive medicines and their use for treating psychiatric and neurological conditions and disorders” (Transcend Therapeutics, Inc., priority 2021, dated 2025).

Key:
Assay in all cases: β-arrestin based GPCR screen (PathHunter / GPCRmax), antagonist mode
[1] = target: 168 GPCRs (Homo sapiens, UniProt P25106)
[2] = target: 168 GPCRs (Homo sapiens, UniProt Q16602); settings: Antagonist
[3] = target: 168 GPCRs (Homo sapiens, UniProt O43614)
[4] = target: 168 GPCRs (Homo sapiens, UniProt P51677); settings: CCR3, Antagonist
Chain of 168 GPCRs (Homo sapiens, UniProt P51677) (P51677 whole entry): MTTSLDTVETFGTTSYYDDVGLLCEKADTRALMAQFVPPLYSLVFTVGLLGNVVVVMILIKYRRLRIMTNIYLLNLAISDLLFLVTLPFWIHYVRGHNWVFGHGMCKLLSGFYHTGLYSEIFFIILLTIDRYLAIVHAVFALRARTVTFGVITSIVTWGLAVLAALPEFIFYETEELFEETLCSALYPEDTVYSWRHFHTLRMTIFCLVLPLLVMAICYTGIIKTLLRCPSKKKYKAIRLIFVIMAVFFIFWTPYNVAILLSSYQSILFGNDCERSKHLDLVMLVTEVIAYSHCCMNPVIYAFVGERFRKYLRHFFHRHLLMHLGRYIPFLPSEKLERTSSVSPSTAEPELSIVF

[5] = target: 168 GPCRs (Homo sapiens, UniProt P08172); settings: CHRM2, Antagonist
Chain of 168 GPCRs (Homo sapiens, UniProt P08172) (P08172 whole entry): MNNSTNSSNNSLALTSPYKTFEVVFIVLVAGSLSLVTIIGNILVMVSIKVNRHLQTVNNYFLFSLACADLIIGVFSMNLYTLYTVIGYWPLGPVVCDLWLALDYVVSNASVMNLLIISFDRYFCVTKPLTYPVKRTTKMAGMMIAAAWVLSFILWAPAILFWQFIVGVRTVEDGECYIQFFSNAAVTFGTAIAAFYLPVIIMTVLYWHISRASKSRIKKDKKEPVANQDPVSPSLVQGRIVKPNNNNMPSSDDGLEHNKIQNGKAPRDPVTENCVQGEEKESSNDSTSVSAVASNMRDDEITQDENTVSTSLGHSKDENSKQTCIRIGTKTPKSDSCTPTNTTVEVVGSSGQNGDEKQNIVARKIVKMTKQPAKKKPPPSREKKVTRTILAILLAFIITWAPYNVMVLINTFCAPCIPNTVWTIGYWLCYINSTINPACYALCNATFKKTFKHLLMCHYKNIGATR

[6] = target: 168 GPCRs (Homo sapiens, UniProt P28336); settings: NMBR
Chain of 168 GPCRs (Homo sapiens, UniProt P28336) (P28336 whole entry): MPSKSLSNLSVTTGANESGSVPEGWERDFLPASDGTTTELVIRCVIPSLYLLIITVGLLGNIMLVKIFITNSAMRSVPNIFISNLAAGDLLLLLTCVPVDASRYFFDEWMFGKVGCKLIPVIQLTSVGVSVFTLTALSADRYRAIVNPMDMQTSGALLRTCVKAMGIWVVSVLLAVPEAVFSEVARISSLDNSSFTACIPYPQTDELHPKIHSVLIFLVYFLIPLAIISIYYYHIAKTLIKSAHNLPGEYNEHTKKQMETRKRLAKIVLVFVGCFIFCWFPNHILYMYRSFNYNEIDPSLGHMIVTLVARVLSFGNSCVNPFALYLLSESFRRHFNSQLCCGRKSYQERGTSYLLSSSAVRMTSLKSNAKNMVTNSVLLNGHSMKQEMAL

[7] = target: 168 GPCRs (Homo sapiens, UniProt P35367)
[8] = target: 168 GPCRs (Homo sapiens, UniProt Q8TDV5)
Chain of 168 GPCRs (Homo sapiens, UniProt Q8TDV5) (Q8TDV5 whole entry): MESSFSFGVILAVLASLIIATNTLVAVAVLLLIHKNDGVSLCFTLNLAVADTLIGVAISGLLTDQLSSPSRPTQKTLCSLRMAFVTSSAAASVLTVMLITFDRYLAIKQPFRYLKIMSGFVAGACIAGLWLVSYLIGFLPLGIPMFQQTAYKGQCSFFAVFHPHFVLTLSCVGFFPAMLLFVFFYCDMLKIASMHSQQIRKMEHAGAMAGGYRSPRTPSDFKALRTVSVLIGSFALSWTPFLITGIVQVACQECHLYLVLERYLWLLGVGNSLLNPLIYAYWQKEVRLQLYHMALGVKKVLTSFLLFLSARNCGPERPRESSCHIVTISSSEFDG

[9] = target: T1, 168 GPCRs (Homo sapiens, UniProt P32247); settings: BRS3, Antagonist
T1 sequence (P32247 1-399): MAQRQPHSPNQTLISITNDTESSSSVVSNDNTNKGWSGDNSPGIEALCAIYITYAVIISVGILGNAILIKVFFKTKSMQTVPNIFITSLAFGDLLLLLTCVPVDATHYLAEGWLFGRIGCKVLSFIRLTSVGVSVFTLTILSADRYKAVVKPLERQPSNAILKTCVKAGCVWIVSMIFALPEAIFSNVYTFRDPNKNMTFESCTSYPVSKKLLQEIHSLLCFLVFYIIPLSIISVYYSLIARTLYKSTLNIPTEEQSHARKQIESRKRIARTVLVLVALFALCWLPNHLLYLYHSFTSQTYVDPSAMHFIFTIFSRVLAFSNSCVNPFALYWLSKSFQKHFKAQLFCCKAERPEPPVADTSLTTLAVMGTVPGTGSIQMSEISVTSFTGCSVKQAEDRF

[10] = target: 168 GPCRs (Homo sapiens, UniProt Q8NFJ6)
Chain of 168 GPCRs (Homo sapiens, UniProt Q8NFJ6) (Q8NFJ6 whole entry): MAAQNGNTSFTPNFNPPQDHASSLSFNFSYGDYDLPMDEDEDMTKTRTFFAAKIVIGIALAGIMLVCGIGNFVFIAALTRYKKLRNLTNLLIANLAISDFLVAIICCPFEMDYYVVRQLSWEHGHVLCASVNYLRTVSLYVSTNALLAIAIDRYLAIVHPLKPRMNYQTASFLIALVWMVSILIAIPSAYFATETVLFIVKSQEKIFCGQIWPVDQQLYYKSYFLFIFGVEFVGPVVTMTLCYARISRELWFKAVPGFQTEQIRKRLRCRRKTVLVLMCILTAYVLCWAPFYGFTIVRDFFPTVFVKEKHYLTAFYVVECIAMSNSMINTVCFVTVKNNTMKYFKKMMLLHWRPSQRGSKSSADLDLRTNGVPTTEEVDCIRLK

[11] = target: 168 GPCRs (Homo sapiens, UniProt Q9GZQ6)
Chain of 168 GPCRs (Homo sapiens, UniProt Q9GZQ6) (Q9GZQ6 whole entry): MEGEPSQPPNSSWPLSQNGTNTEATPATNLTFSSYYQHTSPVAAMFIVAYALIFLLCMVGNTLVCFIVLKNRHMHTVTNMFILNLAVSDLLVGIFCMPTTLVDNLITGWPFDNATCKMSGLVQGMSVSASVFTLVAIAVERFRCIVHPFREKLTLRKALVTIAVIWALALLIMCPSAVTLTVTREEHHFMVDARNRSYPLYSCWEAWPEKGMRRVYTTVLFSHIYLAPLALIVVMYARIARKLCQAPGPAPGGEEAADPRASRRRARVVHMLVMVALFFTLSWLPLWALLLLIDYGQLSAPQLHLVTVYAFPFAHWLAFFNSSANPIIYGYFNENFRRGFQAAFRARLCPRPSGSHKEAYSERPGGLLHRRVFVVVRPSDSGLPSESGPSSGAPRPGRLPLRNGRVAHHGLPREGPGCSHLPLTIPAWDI

[12] = target: 168 GPCRs (Homo sapiens, UniProt P35346)
Chain of 168 GPCRs (Homo sapiens, UniProt P35346) (P35346 whole entry): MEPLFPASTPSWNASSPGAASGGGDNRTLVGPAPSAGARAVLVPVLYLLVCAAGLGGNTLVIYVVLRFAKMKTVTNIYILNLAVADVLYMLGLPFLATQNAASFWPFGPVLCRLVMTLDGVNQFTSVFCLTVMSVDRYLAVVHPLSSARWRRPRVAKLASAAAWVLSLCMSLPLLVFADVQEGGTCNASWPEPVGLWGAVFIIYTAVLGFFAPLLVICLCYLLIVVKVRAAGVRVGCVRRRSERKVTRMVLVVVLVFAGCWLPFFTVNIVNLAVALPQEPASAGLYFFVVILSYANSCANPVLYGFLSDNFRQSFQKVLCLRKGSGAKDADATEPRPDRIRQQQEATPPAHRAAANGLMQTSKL

[13] = target: T2, 168 GPCRs (Homo sapiens, UniProt P0DMS8); settings: ADORA3, Antagonist
T2 sequence (P0DMS8 1-318): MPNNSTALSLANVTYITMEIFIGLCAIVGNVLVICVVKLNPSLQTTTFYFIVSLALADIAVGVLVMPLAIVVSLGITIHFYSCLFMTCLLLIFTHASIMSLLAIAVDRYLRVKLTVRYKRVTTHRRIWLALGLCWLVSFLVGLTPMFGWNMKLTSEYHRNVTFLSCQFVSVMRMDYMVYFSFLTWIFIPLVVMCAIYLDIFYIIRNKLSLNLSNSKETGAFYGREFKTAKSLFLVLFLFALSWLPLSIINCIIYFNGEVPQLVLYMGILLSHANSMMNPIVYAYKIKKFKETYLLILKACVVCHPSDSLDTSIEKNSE

[14] = target: 168 GPCRs (Homo sapiens, UniProt P33032); settings: MC5R
Chain of 168 GPCRs (Homo sapiens, UniProt P33032) (P33032 whole entry): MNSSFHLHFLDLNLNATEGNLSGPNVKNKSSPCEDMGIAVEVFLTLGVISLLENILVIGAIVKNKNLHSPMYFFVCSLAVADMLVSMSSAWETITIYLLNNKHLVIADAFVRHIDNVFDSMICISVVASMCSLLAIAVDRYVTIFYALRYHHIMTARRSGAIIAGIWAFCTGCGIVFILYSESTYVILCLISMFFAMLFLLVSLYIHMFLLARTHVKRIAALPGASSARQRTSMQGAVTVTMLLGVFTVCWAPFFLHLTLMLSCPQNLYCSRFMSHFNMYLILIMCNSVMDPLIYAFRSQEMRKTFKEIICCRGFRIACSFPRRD

[15] = target: 168 GPCRs (Homo sapiens, UniProt O14842)
[16] = target: 168 GPCRs (Homo sapiens, UniProt Q8TCW9)
Chain of 168 GPCRs (Homo sapiens, UniProt Q8TCW9) (Q8TCW9 whole entry): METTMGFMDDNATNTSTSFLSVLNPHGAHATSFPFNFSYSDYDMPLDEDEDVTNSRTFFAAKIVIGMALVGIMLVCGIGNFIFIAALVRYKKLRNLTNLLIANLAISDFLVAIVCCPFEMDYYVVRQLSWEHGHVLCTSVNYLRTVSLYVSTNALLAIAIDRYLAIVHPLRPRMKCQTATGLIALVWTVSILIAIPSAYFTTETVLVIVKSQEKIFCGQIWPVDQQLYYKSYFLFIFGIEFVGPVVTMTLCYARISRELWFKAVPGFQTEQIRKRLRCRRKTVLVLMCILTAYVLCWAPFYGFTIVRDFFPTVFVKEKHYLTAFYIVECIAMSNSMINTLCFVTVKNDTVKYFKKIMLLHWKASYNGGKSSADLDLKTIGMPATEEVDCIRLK

[17] = target: 168 GPCRs (Homo sapiens, UniProt Q8TDS5)
Chain of 168 GPCRs (Homo sapiens, UniProt Q8TDS5) (Q8TDS5 whole entry): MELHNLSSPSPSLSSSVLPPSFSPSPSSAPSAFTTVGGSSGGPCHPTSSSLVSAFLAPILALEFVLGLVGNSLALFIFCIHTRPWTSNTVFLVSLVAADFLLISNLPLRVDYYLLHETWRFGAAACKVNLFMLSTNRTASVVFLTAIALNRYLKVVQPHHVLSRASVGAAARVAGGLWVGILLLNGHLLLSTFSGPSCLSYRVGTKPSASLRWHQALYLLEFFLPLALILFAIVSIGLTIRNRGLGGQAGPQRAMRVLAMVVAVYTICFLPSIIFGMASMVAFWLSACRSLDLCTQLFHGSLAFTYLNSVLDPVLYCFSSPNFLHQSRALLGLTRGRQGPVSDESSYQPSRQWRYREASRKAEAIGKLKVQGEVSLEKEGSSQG

Chain of 168 GPCRs (Homo sapiens, UniProt Q16602) (Q16602 23-461): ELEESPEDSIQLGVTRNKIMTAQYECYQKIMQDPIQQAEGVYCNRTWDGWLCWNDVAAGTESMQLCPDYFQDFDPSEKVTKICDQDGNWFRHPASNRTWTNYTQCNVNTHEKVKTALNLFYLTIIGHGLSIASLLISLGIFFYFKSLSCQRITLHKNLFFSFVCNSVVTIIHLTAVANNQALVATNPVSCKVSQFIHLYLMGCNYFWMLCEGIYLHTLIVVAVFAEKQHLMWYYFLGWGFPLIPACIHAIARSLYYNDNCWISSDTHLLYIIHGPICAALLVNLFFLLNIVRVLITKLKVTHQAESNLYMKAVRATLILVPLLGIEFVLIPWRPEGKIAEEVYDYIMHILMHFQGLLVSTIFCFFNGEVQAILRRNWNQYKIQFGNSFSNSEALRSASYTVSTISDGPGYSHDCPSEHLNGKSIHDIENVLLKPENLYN
Chain of 168 GPCRs (Homo sapiens, UniProt O43614) (O43614 whole entry): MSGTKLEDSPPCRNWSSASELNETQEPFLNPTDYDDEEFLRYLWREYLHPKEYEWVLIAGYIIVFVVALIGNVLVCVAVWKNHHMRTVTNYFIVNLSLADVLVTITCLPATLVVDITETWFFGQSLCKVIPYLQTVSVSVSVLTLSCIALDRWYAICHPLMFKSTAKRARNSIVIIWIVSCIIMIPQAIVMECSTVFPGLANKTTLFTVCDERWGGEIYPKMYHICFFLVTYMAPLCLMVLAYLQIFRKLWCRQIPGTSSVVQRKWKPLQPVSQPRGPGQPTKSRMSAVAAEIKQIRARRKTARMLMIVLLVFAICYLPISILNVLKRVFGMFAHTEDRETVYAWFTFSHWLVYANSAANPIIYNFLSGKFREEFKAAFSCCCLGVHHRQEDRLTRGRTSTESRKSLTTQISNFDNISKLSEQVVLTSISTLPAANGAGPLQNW

CNC(C)C(=O)c1ccc2c(c1)OCO2 (centres unmarked) [methylone, 3,4-methylenedioxy-N-methylcathinone]
activity at 10 µM ([1]; CXCR7, Antagonist mode, 10 uM): 7.3% | activity at 1 µM ([1]; CXCR7, Antagonist, 1 uM): 14.1% | activity at 1 µM ([2]; CALCRL-RAMP1): 4.7% | activity at 10 µM ([2]; CALCRL-RAMP1): 7% | activity at 1 µM ([2]; CALCRL-RAMP2): 19.1% | activity at 10 µM ([2]; CALCRL-RAMP2): 7% | activity at 1 µM ([2]; CALCRL-RAMP3): -18.5% | activity at 10 µM ([2]; CALCRL-RAMP3): -7.5% | activity at 10 µM ([3]; HCRTR2, Antagonist mode, 10 uM): 2.4% | activity at 1 µM ([3]; HCRTR2, Antagonist, 1 uM): 6.4% | activity at 1 µM ([4]; 1 uM): -11.8% | activity at 10 µM ([4]; 10 uM): -4% | activity at 1 µM ([5]; 1 uM): -18.5% | activity at 10 µM ([5]; 10 uM): -7.4% | activity at 10 µM ([6]; Antagonist mode, 10 uM): 13.2% | activity at 1 µM ([6]; Antagonist, 1 uM): 10.3% | activity at 10 µM ([7]; HRH1, Antagonist mode, 10 uM): 2.2% | activity at 1 µM ([7]; HRH1, Antagonist, 1 uM): -18% | activity at 10 µM ([8]; GPR119, Antagonist mode, 10 uM): -8.8% | activity at 1 µM ([8]; GPR119, Antagonist, 1 uM): 17.1% | activity at 1 µM ([9]; 1 uM): 18.3% | activity at 10 µM ([9]; 10 uM): 10.1% | activity at 10 µM ([10]; PROKR2, Antagonist mode, 10 uM): 6.8% | activity at 1 µM ([10]; PROKR2, Antagonist, 1 uM): 2% | activity at 10 µM ([11]; NPFFR1, Antagonist mode, 10 uM): 27.1% | activity at 1 µM ([11]; NPFFR1, Antagonist, 1 uM): 32% | activity at 10 µM ([12]; SSTR5, Antagonist mode, 10 uM): 5.7% | activity at 1 µM ([12]; SSTR5, Antagonist, 1 uM): 14.7% | activity at 1 µM ([13]; 1 uM): 11.3% | activity at 10 µM ([13]; 10 uM): 7.7% | activity at 10 µM ([14]; Antagonist mode, 10 uM): -6.3% | activity at 1 µM ([14]; Antagonist, 1 uM): 1.7% | activity at 10 µM ([15]; FFAR1, Antagonist mode, 10 uM): -13.8% | activity at 1 µM ([15]; FFAR1, Antagonist, 1 uM): -7.9% | activity at 10 µM ([16]; PROKR1, Antagonist mode, 10 uM): 3.3% | % Activity ([16]; PROKR1, Antagonist): 8.7% | activity at 10 µM ([17]; OXER1, Antagonist mode, 10 uM): 7.6% | activity at 1 µM ([17]; OXER1, Antagonist, 1 uM): 2.9%
